From PMC10017027, “Design and Synthesis of Novel HIV-1 NNRTIs with Bicyclic Cores and with Improved Physicochemical Properties” (Journal of Medicinal Chemistry, 2023)
Values after ≈ are worked out from the molar mass of the structure shown. Where two headings read alike, the source gives them in different places.

Tests used:
[1] = test system: HIV-1 HXB2; assay: MT-4 antiviral cytopathic effect assay, HXB2 wild-type virus; type: cell-based
Description: (§1) The prepared compounds were tested for their anti-HIV-1 activity (Table 1). A viral cytopathic effect assay in MT-4 cells with HIV-1 IIIB virus was used to determine compound potency (EC50, 50% cell viability) in protecting virus induced cell killing. Compound cytotoxicity was assessed in MT-4 cells in the absence of virus (CC50, 50% cytotoxicity).
(§2) Compounds were tested in a high-throughput 384-well assay format for their ability to inhibit the virus replication-induced cytopathic effect in MT-4 cell cultures acutely infected with HIV-1 (IIIB strain), HXB2, HXB2-K103N, and HXB2-Y181C. Compounds were serially diluted (1:3) in DMSO on 384-well polypropylene plates and further diluted 200-fold into complete RPMI media (10% FBS, 1% P/S) using Biotek Micro Flow and an Agilent ECHO acoustic dispenser. Each plate contained up to eight test compounds, with negative (no drug control) and 5 μM AZT positive controls. MT-4 cells were further diluted in complete RPMI media and added to each plate using a Micro-Flo dispenser. After five days of incubation in a humidified and temperature-controlled incubator (37 °C), Cell Titer Glo (Promega) was added to the assay plates to quantify the amount of […]. EC50 and CC50 values were defined as the compound concentration that causes a 50% decrease in luminescence signal and were calculated using a sigmoidal dose-response model to generate curve fits.

[2] = Solubility assessment, shake-flask method; type: physicochemical; details: for solubility: shake-flask; for HCl sol / PBS sol / solubility thermodynamic: supplement CSV
Description: Compound solubility was measured at Analiza (Cleveland, OH) by the standard shake-flask method at pH 1.2 and 7.4 and quantitated by HPLC-UV.

[3] = Predicted clearance in human liver microsomes; type: in vitro ADME; details: pH 7.4, 1 μM compound, read-out: HLM CLint, pred (converted)
Description: Next, microsome stability was profiled in purified human liver microsomes (HLM).
Metabolic stability of compounds was assessed using HLM (Corning cat. 457117).[52] In this assay, 10 nL compounds at a concentration of 1 mM in 100% DMSO are dispensed into 384-well polypropylene plates using the Echo 550 acoustic liquid dispenser (Labcyte). Each plate contains 384 wells with a single test compound in each well.
A solution of HLM at 2 mg/mL in 100 mM K2HPO4/KH2PO4 pH 7.4 with 0.0225 mg/mL Alamethicin from Trichoderma viride (Sigma-Aldrich cat. A4665-10MG) was incubated on ice for 15 min. 5 μL of this solution was added to individual wells following 15 min incubation at room temperature; and supplemented with 5 μL NADPH Regenerating Solution of cofactors (Corning Gentest UGT Reaction Mix solutions A and B, cat. 451200 and 451220) containing 100 mM K2HPO4/KH2PO4 pH 7.4, 2.6 mM NADP^+, 6.6 mM glucose-6-phosphate, 6.6 mM MgCl2, 0.8 U/mL glucose-6-phosphate dehydrogenase, 0.1 mM sodium citrate, and 6.8 mM uridine diphosphate-glucuronic acid. The final concentration of analyte compounds at the beginning of the reactions was 1 μM. The reactions were incubated at 37 °C, and time points of 0, 5, 15, 30, 40, 50, 60, and 70 min were collected for further analysis. Background data were collected using reactions without analyte compounds.
Upon collection of the reaction time points, samples were quenched at the set time points with 30 μL of a solution of 72% acetonitrile, 8% methanol, 0.1% formic acid, 19.9% water, and labetalol as an internal standard (IS) at a concentration of 650 nM. Reaction plates were span in a centrifuge at a speed of 4000 rcf for 30 min and 4 °C, following a dilution of the 10 μL quenched reaction into 40 μL de-ionized water, yielding assay plates.
Samples were analyzed by a solid-phase extraction coupled with a quadrupole time-of-flight mass spectrometer, using an Agilent QToF 6530 RapidFire 360 system with C4 type A solid state cartridges. Analysis was performed in either positive or negative ionization modes. Mobile phases contained 0.1% formic acid in water for loading analytes onto solid state extraction cartridges, and 0.1% formic acid in acetonitrile for elution into the mass spectrometer in positive ionization mode, or 0.1% acetic acid in water for loading and 0.1% acetic acid in acetonitrile for extraction in negative ionization mode. Peak-area ratios of integrated counts for individual compounds to IS were plotted as a semi-logarithmic chart of log versus time. Initial, linear portion of decay was fitted to a linear regression equation to derive the half-time of a compound decay.
Pharmacological parameters for an analyte compound metabolism were calculated using the equations described in Table S2.
Table S2. Pharmacological parameters for an analyte compound metabolism were
calculated using the following equations:
Intrinsic Clearance (in Cl = ln 2
int, in vitro T1/2 ∗ Conc
Intrinsic Clearance Cl = Clint, in vitro ∗ Liver Mass ∗ Yield
Predicted Hepatic Cl = Clint ∗ QH
QH (Hepatic Blood Flow) = 1.3 L/hr/kg

[4] = test system: E138K; details: cell culture; cited from earlier work
[5] = test system: HIV-1 HXB2 K103N variant; assay: MT-4 antiviral cytopathic effect assay, HXB2-K103N; type: cell-based; details: for EC50: Human immunodeficiency virus 1, HXB2, read-out: EC50 K103N
Description: (§3) The prepared compounds were tested for their anti-HIV-1 activity (Table 1). A viral cytopathic effect assay in MT-4 cells with HIV-1 IIIB virus was used to determine compound potency (EC50, 50% cell viability) in protecting virus induced cell killing. Compound cytotoxicity was assessed in MT-4 cells in the absence of virus (CC50, 50% cytotoxicity). […] ETV contains bromo and amino substitutions on the DAPY core. […] Likely, with the smaller cyano arm I in 1, 3, and 5, the cores could be further elaborated to optimize the compound position in the pocket and to improve potency.
as §2

[6] = in vitro; type: cell-based; details: human
Description: as §3, §2

[7] = test system: HIV-1 HXB2 Y181C variant; assay: MT-4 antiviral cytopathic effect assay, HXB2-Y181C; type: cell-based; details: for EC50: Human immunodeficiency virus 1, HXB2, read-out: EC50 Y181C
Description: as §3, §2

[8] = test system: HIV-1 (IIIB strain); assay: MT-4 antiviral cytopathic effect assay, HIV-1 IIIB; type: cell-based; details: HIV-1 IIIB, WT
Description: as §1, §2

[9] = MDCK permeability assay (A to B); type: in vitro ADME, Canine; details: dog, MDCK
Description: (§4) Compounds were further tested in a Madin–Darby Canine Kidney (MDCK) assay to evaluate their potential for oral absorption. […] Additionally, there was no trend for better permeability when comparing arm I versus arm II when matched with the same core. The size of the B ring had the greatest influence on Papp with the trend being five-membered > six-membered > seven-membered rings (Table 1).
(§5) cMdr1-KO cells were maintained in Dulbecco’s modified Eagle’s medium (DMEM) with sodium pyruvate and GlutaMax, supplemented with 1% Pen/Strep and 10% fetal bovine serum in an incubator set at 37 °C, 90% humidity, and 5% CO2. MDCKII- cMdr1-KO cells were grown to confluence over 3 days on 96-well PET plates with 1 μm pore size, polyester membrane (Corning 3392). Experiments were run using HBSS donor buffer from Invitrogen containing an additional 10 mM HEPES, 15 mM glucose, and 0.1% BSA adjusted to pH 7.4. The receiver well had HBSS buffer supplemented with 1% BSA, 10 mM HEPES, 15 mM glucose, and the pH was adjusted to 7.4. TEER values were read to test membrane integrity at the beginning of the assay. The experiment was started by the addition of dosing solutions containing test compounds. Samples were taken from the donor compartment at 0/120 min and from the receiver compartment at 120 min. Each compound was tested in two separate replicate wells. All samples were immediately collected in a 72:8:20 MeCN/MeOH:H2O mix to precipitate protein and stabilize the test compounds. Cells were dosed on the apical side to determine forward (A to B) permeability. To test for non-specific binding and compound instability, the total amount of drug was quantified at the end of the experiment and compared to the material present in the original dosing solution as a percentage of recovery. Samples were analyzed by RF-QToF.

[10] = test system: MDCKII-cMdr1-KO cells; assay: MDCK permeability assay (A to B); type: in vitro ADME, Canine; details: in words
Description: as §4, §5

[11] = HCl, pH 1.2, read-out: solubility HCl
[12] = phosphate-buffered saline, pH 7.4, read-out: solubility PBS
[13] = fold change: ratio of potency against HXB2 K103N and parental HXB2
[14] = supplement CSV, fold change vs HXB2
[15] = fold change: ratio of potency against HXB2 Y181C and parental HXB2
[16] = apparent permeability coefficient, A to B, pH 7.4
[17] = Human immunodeficiency virus 1, MT4, HIV-1 HXB2 wild-type, MT-4 cells, read-out: EC50 HXB2
[18] = Human immunodeficiency virus 1, IIIB, MT4, protects 50% of MT-4 cells against HIV-1-induced cell killing, read-out: EC50 MT4

| Compound | solubility [2, 11] [µM] | solubility [2, 12] [µM] | HCl sol [2] [µM] | PBS sol [2] [µM] | CLint scaled at 1.167 h, 1 µM [3] [mL/min/kg] | resistance conferred by E138K [4] | EC50 [5] [nM] | K103N (FC) [5, 13] | K103N (FC) [5, 14] | CC50 at 120 h [6] [µM] | EC50 [7] [nM] | Y181C (FC) [7, 15] | Y181C (FC) [7, 14] | Papp A→B at 120 min ([9]; supplement CSV) [×10⁻⁶ cm/s] | Papp A→B at 120 min [9, 16] [×10⁻⁶ cm/s] | permeability (Papp) in the MDCK assay [10] | EC50 [1, 17] [nM] | EC50 [8, 18] [nM] | other results |
| --- | --- | --- | --- | --- | --- | --- | --- | --- | --- | --- | --- | --- | --- | --- | --- | --- | --- | --- | --- |
| Cc1cc(C#N)cc(C)c1Oc1nc(Nc2ccc(C#N)cc2)nc(N)c1Br [ETV, etravirine, reference compound] | < 1 | < 1 | <1 | <1 | 4.17 | 2–3 fold | 2.3 | 0.9 | 0.9 | 7.3 | 11.1 | 4.8 | 4.8 | 3.8 | 3.8 | moderate |  |  | EC50 ([1]; Human immunodeficiency virus 1, HXB2, MT4, read-out: EC50 HXB2): 2.5 nM; EC50 ([8]; Human immunodeficiency virus 1, MT4, read-out: EC50 MT4, protects 50% of MT-4 cells against HIV-1-induced cell killing): 2.4 nM |
| Cc1cc(/C=C/C#N)cc(C)c1Nc1ccnc(Nc2ccc(C#N)cc2)n1 [RPV, rilpivirine, reference compound] | > 100 | < 1 |  |  | 14.3 | 2–3 fold | 1.5 | 1.3 | 1.3 | 6.5 | 3.8 | 3.2 | 3.2 | 4.6 | 4.6 | moderate |  |  | solubility thermodynamic ([2]; HCl, pH 1.2, read-out: HCl sol): > 100 µM; solubility thermodynamic ([2]; PBS, pH 7.4, aqueous buffer, read-out: PBS sol): < 1 µM |
| Cc1cc(/C=C/C#N)cc(C)c1-n1c(=O)[nH]c2cnc(Nc3ccc(C#N)cc3)nc21 [Compound 2, 4-[(9-{4-[(1E)-2-Cyanoeth-1-en-1-yl]-2,6-dimethylphenyl}-8-oxo-8,9-dihydro-7H-purin-2-yl)amino]benzonitrile] | 61.2 (≈ 24.9 µg/mL) | 10.4 (≈ 4.24 µg/mL) | 61.2 | 10.4 | 16.7 |  | 4.5 | 2.0 | 2.0 | 23.3 | 10.6 | 4.8 | 4.8 | 5.6 | 5.6 |  | 2.2 | 2.5 |  |
| Cc1cc(/C=C/C#N)cc(C)c1N1CCC(=O)Nc2cnc(Nc3ccc(C#N)cc3)nc21 [Compound 6, 4-[(9-{4-[(1E)-2-Cyanoeth-1-en-1-yl]-2,6-dimethylphenyl}-6-oxo-5H,6H,7H,8H,9H-pyrimido[4,5-b][1,4]diazepin-2-yl)amino]benzonitrile] | 63.3 (≈ 27.6 µg/mL) | 2.3 (≈ 1 µg/mL) | 63.3 | 2.3 | 12 |  | 4.8 | 1.7 | 1.7 | 25.8 | 18.3 | 6.5 | 6.5 | 3.1 | 3.1 |  | 2.8 | 2.6 to 3 | EC50 ([8]; protects 50% of MT-4 cells against HIV-1-induced cell killing, read-out: EC50 MT4): 3 nM |
